The values below come from patent US11318214B2, “Iron oxide mesoporous microparticle drug carrier” (National Guard Health Affairs, priority 2020, dated 2022).

Data set [1] in a line: Drug loading onto IO-MMMs (UV-vis). The class given is physicochemical. The settings on record: for amount of drug loaded / loading efficiency: maximal loading onto IO-MMMs; for loading efficiency: absorption spectroscopy. Here is the method:
1 mL aqueous dispersion of IO-MMMs (1.0 mg/mL) and aqueous drug solutions (250 μg/mL) were gently shaken on a rotary shaker for 36 h to enable maximal drug loading. The particle dispersions were then isolated via centrifugation (4500 rpm, 10 min), washed repeatedly with water until no drug was detected in the supernatant by UV-vis, and finally redispersed in water to form stable aqueous dispersions of drug@IO-MMMs. In case of Tam and Daun loading, Tam was first loaded followed by Daun to afford Daun/Tam@IO-MMMs (165 μg/mL Tam; 235 μg/mL Daun). Loading efficiencies were determined by UV-Vis spectroscopy as depicted below. […] The loading efficiency was calculated as: Loading Efficiency=(W1/W0)×100, where W1 is the amount of drug loaded onto the particles, and W0 is the amount of drug in the initial solution. The amount of drug loaded onto IO-MMMs was calculated from the difference between the initial drug concentration and the drug concentration left in the supernatant.

The nature of data set [2]: In vitro drug release in PBS buffer at two pH values. The settings on record: from IO-MMM, slightly acidic pH of 4.5, after 48 h, 37° C. The class given is physicochemical. Here is the method:
In a typical study, 5 mg of drug@IO-MMMs were suspended in 1 mL PBS buffer at two different pH values (pH=7.4 and pH=4.5) and gently rotated at 37° C. in an oven provided with a precise control in the temperature within 0.01° C. The concentration of drugs in the supernatant was determined at fixed time intervals by UV-vis spectroscopy. At specific time points, supernatant aliquots obtained by centrifugation were taken from each tube, measured and returned to their respective tubes after UV-vis measurements. The drug concentration could be directly calculated from the measured absorbance. Triplicate aliquots were run for each time interval, and average values plotted. The percent drug release was calculated using the equation below: % Drug Release=(Abs(t) of released drug/Abs(t0))×100.

For data set [3] the following is noted: estimated; cited from earlier work.

As to `COc1cccc2c1C(=O)c1c(O)c3c(c(O)c1C2=O)C[C@@](O)(C(C)=O)C[C@@H]3O[C@H]1C[C@H](N)[C@H](O)[C@H](C)O1` [Daun, Daunorubicin], in data set [1], the “amount of drug loaded” value is on record as ≤ 235 μg/mg of particles and the loading efficiency is ≤ 94%. For the same molecule, in data set [2], the total drug released is ~50%.

Take `COc1cccc2c1C(=O)c1c(O)c3c(c(O)c1C2=O)C[C@@](O)(C(=O)CO)C[C@@H]3O[C@H]1C[C@H](N)[C@H](O)[C@H](C)O1` [Dox, Doxorubicin]: the “amount of drug loaded” value in data set [1] was ≤ 227 μg/mg of particles. The molecular size in data set [3] is on record as ~1.37 nm. Also, the total drug released result in data set [2] is listed as “about 40%”.

Consider `CC/C(=C(\c1ccccc1)c1ccc(OCCN(C)C)cc1)c1ccccc1` [Tam, Tamoxifen], for which, in data set [1], the “amount of drug loaded” value is ≤ 165 μg/mg of particles and the loading efficiency was ≤ 83%. The “loading efficiencies depending on the initial drug concentrations used” value in data set [1] (onto IO-MMMs) is on record as 66-83%. Moreover, in data set [2], the total drug released is listed as ~80%.
